Source: ChEMBL document CHEMBL3137667, “[Drug-induced liver injury; fourteenth updated edition of the bibliographic database of liver injuries and related drugs]” (Gastroenterol Clin Biol, 2004)
*1 amine or outer side, *2 acyl side, *3 side chain or, on linkers, in order; H or OH if unused. Where a SMILES comes first, the peptide text is derived from it. Bridges are numbered along the chain shown (N, C = ends). [ ]: non-standard residue; d: D form. The star is where a group is joined. X1 = O=C1C[C@@H](C(=O)[*:2])N([*:1])C[C@H]1CS[C@@H]1CN2CCC1CC2; NMePhe(4-NMe2) = CN[C@@H](Cc1ccc(N(C)C)cc1)C(=O)O; Picolinoyl(3-OH) = O=C(c1ncccc1O)*; Phg = N[C@H](C(=O)O)c1ccccc1; dAbu = CC[C@@H](N)C(=O)O

Assays:
[1] = human
[2] = human; remark: listed apart in the source
[3] = human; remark: listed apart in the source
[4] = human; remark: listed apart in the source
[5] = human; remark: listed apart in the source
[6] = human, serum, 4383 h
[7] = Highest frequency of acute liver toxicity observed during clinical trials, expressed as a percentage. [column '% AIGUE' in source]; details: human
[8] = human; remark: listed apart in the source
[9] = human; remark: listed apart in the source
[10] = human; remark: listed apart in the source
[11] = human, serum
[12] = human, serum; remark: listed apart in the source
[13] = human; remark: listed apart in the source
[14] = Highest frequency of moderate liver toxicity observed during clinical trials, expressed as a percentage. [column '% BIOL' in source]; details: human
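Throughout, for Hepatotoxicity (association with vascular disease): count of indexed literature references reporting vascular liver injury in humans, e.g. peliosis hepatitis, hepatic veno-occlusive disease or Budd-Chiari syndrome.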
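Throughout, for Hepatotoxicity (benign tumour): value is a count of indexed literature references citing a benign tumour confirmed by histopathology.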
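Throughout, for Hepatotoxicity (choleostasis): human cholestatic liver injury, shown by histopathology or by peak ALT or AST elevation over alkaline phosphatase ratio below 2, value counts indexed literature reports.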
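Throughout, for Hepatotoxicity (chronic liver disease): chronic liver injury confirmed by histopathology or persistently raised serum aminotransferase activity beyond 6 months, value given as the count of indexed literature references.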
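Throughout, for Hepatotoxicity (cirrhosis): value is a count of indexed literature references reporting cirrhosis confirmed by histopathology.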
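Throughout, for Hepatotoxicity (cytolytic): human cytolytic liver injury, shown by histopathology or by a ratio above 5 of peak ALT or AST elevation to alkaline phosphatase elevation, value counts indexed references.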
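Throughout, for Hepatotoxicity (granulomatous hepatitis): value is a count of indexed literature references reporting granulomatous liver disease confirmed by histopathology.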
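Throughout, for Hepatotoxicity (malignant tumour): malignant tumour confirmed by histopathology, value gives the count of indexed literature references reporting it.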
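Throughout, for Hepatotoxicity (severe hepatitis): human clinical data: severe hepatitis, meaning potentially life-threatening liver failure or clinically observed cases, the value counts how many indexed literature references report it.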
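Throughout, for Hepatotoxicity (steatosis): steatosis confirmed by histopathology, value is the count of indexed references.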

Structure (SMILES)	Hepatotoxicity (steatosis) [1]	Hepatotoxicity (choleostasis) [2]	Hepatotoxicity (association with vascular disease) [3]	Hepatotoxicity (benign tumour) [4]	Hepatotoxicity (severe hepatitis) [5]	Hepatotoxicity (chronic liver disease) [6]	Hepatotoxicity (acute) [7] [%]	Hepatotoxicity (cirrhosis) [8]	Hepatotoxicity (malignant tumour) [9]	Hepatotoxicity (cytolytic) [10]	Hepatotoxicity (moderate) [11]	Hepatotoxicity (acute) [12]	Hepatotoxicity (granulomatous hepatitis) [13]	Hepatotoxicity (moderate) [14] [%]
Cc1ccc2c(-c3ccccc3)nc(=O)n(C(C)C)c2c1 [PROQUAZONE]	0	0	0	0	0	0	0	0	0	0	1	0	0	1.8
COCCCN1CCC(NC(=O)c2cc(Cl)c(N)c3c2OCC3)CC1 [PRUCALOPRIDE]	0	0	0	0	0	0	0	0	0	0	1	0	0	5.9
Cc1oc(=O)oc1CN1CCN(c2cc3c(cc2F)c(=O)c(C(=O)O)c2n3C(C)S2)CC1 (centres undefined) [PRULIFLOXACIN]	0	0	0	0	0	0	0	0	0	0	25	0	0	33.3
COC(=O)c1nc2cc(Cl)c3cccnc3c2o1 [QUAZOLAST]	0	0	0	0	0	0	0	0	0	0	1	0	0	13
CCN(CC)CCS(=O)(=O)[C@@H]1CCN2C(=O)c3coc(n3)CC(=O)C[C@H](O)/C=C(C)/C=C/CNC(=O)/C=C/[C@@H](C)[C@@H](C(C)C)OC(=O)[C@@H]12.CC[C@H]1NC(=O)[C@@H](NC(=O)c2ncccc2O)[C@@H](C)OC(=O)[C@H](c2ccccc2)NC(=O)[C@@H]2CC(=O)[C@H](CS[C@@H]3CN4CCC3CC4)CN2C(=O)[C@H](Cc2ccc(N(C)C)cc2)N(C)C(=O)[C@@H]2CCCN2C1=O [QUINUPRISTIN/DALFOPRISTIN] ({Picolinoyl(3-OH)}-T[dAbu]P[NMePhe(4-NMe2)][X1][Phg]; ester 1-C)	0	0	0	0	0	0	0	0	0	0	8	0	0	7.1
CC(Cc1ccccc1)(NC(=O)CN)c1ccccc1 (centres undefined) [REMACEMIDE]	0	0	0	0	0	0	0	0	0	0	3	0	0	0.9
